Reference: the NIST ThermoML archive (doi:10.1016/j.tca.2010.01.005)

Assay: excess molar enthalpy (molar enthalpy of mixing); xn = mol fraction of the nth substance listed
Conditions: 303.15 K, 101 kPa, Liquid, Calvet calorimetry

BrCBr [dibromomethane] + CC(=O)c1ccccc1
Conditions | excess molar enthalpy [kcal/mol]
x1 = 0.1763 | -0.0244
x1 = 0.3362 | -0.0354
x1 = 0.4052 | -0.0387
x1 = 0.4229 | -0.0382
x1 = 0.5115 | -0.0382
x1 = 0.6248 | -0.0361
x1 = 0.7449 | -0.0272
x1 = 0.852 | -0.0182

c1ccoc1 [furan] + BrCBr
Conditions | excess molar enthalpy [kcal/mol]
x2 = 0.1499 | 0.0447
x2 = 0.2828 | 0.0554
x2 = 0.3405 | 0.0552
x2 = 0.4247 | 0.0507
x2 = 0.6268 | 0.0397
x2 = 0.7204 | 0.0344
x2 = 0.8358 | 0.0261
x2 = 0.9381 | 0.0131

BrCBr [dibromomethane] + CC#N
Conditions | excess molar enthalpy [kcal/mol]
x1 = 0.1028 | 0.0213
x1 = 0.2166 | 0.0349
x1 = 0.3067 | 0.0413
x1 = 0.4007 | 0.0428
x1 = 0.5547 | 0.0359
x1 = 0.6564 | 0.0256
x1 = 0.7022 | 0.0213
x1 = 0.8786 | 0.0055
